# Experimental data reported in the OPERA property sets (Mansouri et al. 2018).
row,logP,SMILES
1,3.08,Fc1ccc(Br)cc1
2,3.42,Cc1ccc(Br)cc1
3,2.78,Fc1ccc(Cl)cc1
4,2.58,Cc1ccc(F)cc1
5,2.13,Fc1ccc(F)cc1
6,2.26,COc1ccc(F)cc1
7,2.75,Cc1cccc(F)c1

# Further lines, the compound ahead of its results:
row,SMILES,logP
1,Fc1cccc(F)c1,2.21
2,COc1cccc(Br)c1,3.03
3,CC(=O)c1cccc(N)c1,0.83
4,CC(=O)c1cccc(C)c1,2.15
5,COc1ccc(Br)cc1,3.05
6,CC(=O)c1cccc(Br)c1,2.47
7,Fc1cccc(Br)c1,2.92
8,Clc1cccc(Br)c1,3.7
9,Cc1cccc(Br)c1,3.41
10,Clc1ccc(Br)cc1,3.54
11,COc1ccc(OC)cc1,2.04
12,COc1cccc(F)c1,2.36
